Experimental data reported in patent US20230015647A1, “INHIBITORS OF HISTONE DEMETHYLASES (PFI-63 AND PFI-90) FOR THE TREATMENT OF CANCER AND FOR THE INHIBITION OF HISTONE DEMETHYLASE IN CELLS” (The United States of America,as represented by the …, priority 2019, published 2023).
“Also recorded” adds a separate entry of the source. Read-outs that look alike come from different tables or passages of the source.

How the values were obtained:
RH4 cells [1] = assay: Cell confluence assay (cytotoxicity) in RH4 cells; assay type: cell-based; details: Homo sapiens, 72 hour time point
Method: (§1) A cell confluence assay was performed to further assess the cytotoxicity of PFI-63 in RH4 and RH30 rhabdomyosarcoma cells. Confluence data was collected via photographic images of cells treated with PFI-63 at the following time points: 24 hours, 48 hours, 72 hours, 96 hours and 120 hours. Exemplary dose response curves at 72 hours are presented as FIGS. 10 and 11 in RH4 and RH30 cells, respectively.
(§2) A cell confluence assay was performed to assess the cytotoxicity of PFI-90 in RH4 and RH30 rhabdomyosarcoma cells. Confluence data was collected via photographic images of cells treated with PFI-90 at the following time points: 24 hours, 48 hours, 72 hours, 96 hours and 120 hours. Exemplary dose response curves at 72 hours are presented as FIGS. 32 and 33 in RH4 and RH30 cells, respectively.

RH30 cells = assay: Cell confluence assay (cytotoxicity) in RH30 cells; assay type: cell-based; details: 72 hour time point
Method: as §1, §2

[2] = system: rhabdomyosarcoma cells (i.e. RH4 and RH30 cells); assay: Cell confluence / cell number, rhabdomyosarcoma cells taken together; assay type: cell-based
Method: Among the 64 compounds identified above, 33 compounds of unknown mechanism of action were identified.
as §1, §2

[3] = system: OSA-CL osteosarcoma cells; assay: Cell confluence assay in OSA-CL osteosarcoma cells; assay type: cell-based
Method: (§3) A cell confluence assay was performed to further assess the cytotoxicity of PFI-63 in OSA-CL osteosarcoma cells. Confluence data was collected via photographic images of cells treated with PFI-63 at the following time points: 24 hours, 48 hours, 72 hours, 96 hours and 120 hours. Exemplary dose response curves at 72 hours are presented as FIGS. 59 and 60 for PFI-63 and PFI-90 respectively.

[4] = system: TC-32 Ewing's sarcoma cells; assay: Cell confluence assay in TC-32 Ewing's sarcoma cells; assay type: cell-based; details: Homo sapiens, TC-32 cells
Method: as §3
A similar assay was performed to assess the cytotoxicity of PFI-63 and PFI-90 in TC-32 Ewing's sarcoma cells. Exemplary dose response curves at 72 hours are presented as FIGS. 61 and 62 for PFI-63 and PFI-90 respectively.

Log P / solubility = assay type: physicochemical
RH4 cells [5] = assay: Gene set enrichment analysis (GSEA) of RNASeq gene expression; assay type: cell-based, human
Method: Gene set enrichment analyses (GSEA) were performed according to methods known in the art to evaluate […] in cells treated with PFI-63 as compared to control cells. Briefly, gene expression in RH4 cells treated with PFI-63 was assessed by RNASeq, and the results were statistically compared with various pre-existing gene sets. […] The results also indicate that RH4 cells treated with PFI-63 experience upregulation of targets associated with myogenic differentiation and apoptosis (see FIGS. 18 and 19).
GSEA assays like those performed in Example 3 above, were also performed to assess PFI-90. The results for PFI-90 were similar to those obtained for PFI-63. […] The results also indicate that cells treated with PFI-90 experience upregulation of targets associated with myogenic differentiation and apoptosis (see FIGS. 39-40).

RH4 cells [6] = assay: Western blot (MYOG, cleaved PARP, PAX3-FOXO1); assay type: cell-based, human
Method: The GSEA results were supported by analysis via Western blot. […] This example confirms that PFI-63 disrupts PAX3-FOXO1 super enhancer circuitry. PFI-63 is also associated with upregulation of targets associated with myogenic differentiation and apoptosis.
In RH4 cells treated with PFI-90 at 3 μM, an increase in cleaved PARP (a marker for apoptosis) is observed at 24 hours (FIG. 48). This coincides with a decrease in PAX3-FOXO1 which is also observed at 24 hours (FIG. 49).

histone H3 methylation = assay: Western blot of histone H3 methylation in treated cells; assay type: cell-based
Excerpt: A diagram illustrating this activity is provided as FIG. 26.
Analysis via Western blot confirms that PFI-90 inhibits lysine demethylase activity.

RH4 cells [7] = assay: Caspase 3 apoptosis assay in RH4 cells; assay type: cell-based, human
Excerpt: (§4) The impact of PFI-63 and PFI-90 on apoptosis in rhabdomyosarcoma cells was investigated by assaying caspase 3 levels in the cells, and by annexin V staining.

SCMC cells = assay: Caspase 3 apoptosis assay in SCMC cells; assay type: cell-based, human
Excerpt: as §4

RH4 cells [8] = assay: Annexin V staining; assay type: cell-based, human; details: relative to DMSO control
Excerpt: as §4

[9] = 72 hour time point, read-out: IC50
[10] = approximate, read-out: IC50 (toxic to osteosarcoma cells)
[11] = approximate, read-out: IC50 (toxic to Ewing's sarcoma cells)

SMILES | IC50 (RH4 cells [1]) [nM] | IC50 (RH30 cells) [µM] | IC50 [3, 9] [µM] | IC50 [3, 10] [µM] | IC50 [4, 9] [nM] | IC50 [4, 11] [nM] | logP (Log P / solubility) | GSEA: genes that are induced upon KDM3B suppression (RH4 cells [5]) | GSEA: targets associated with apoptosis (RH4 cells [5]) | GSEA: targets associated with myogenic differentiation (RH4 cells [5]) | GSEA: targets of the PAX3-FOXO1 fusion transcription factor (RH4 cells [5]) | caspase 3 (RH4 cells [7]) | caspase 3 (SCMC cells) | cell death by annexin V staining (RH4 cells [8]) | further results
Cc1cc(C)cc(C(=O)NNC(=O)c2ccccn2)c1 [PFI-63] | 3660 | 4.82 | 7.57 | ~7.5 | 1880 | ~2000 | 2.36 | upregulated | upregulation | upregulation | downregulated | increased caspase 3 | increased caspase 3 | increase in cell death | IC50 ([2]; FIGS. 8-9 (cell number by confluency, RH4, RH30, RH30.19luc), read-out: IC50): 2 to 6 µM; IC50 ([2]; RH4 and RH30 cells, approximate, read-out: IC50 (toxic to rhabdomyosarcoma cells)): 3 to 5 µM; GSEA: targets that are upregulated by GSK-J4 (RH4 cells [5]): upregulated; also recorded: upregulation; GSEA: targets that are upregulated by JIB-04 (RH4 cells [5]): upregulated; also recorded: upregulation; MYOG (Western blot) (RH4 cells [6]): increase; cleaved PARP (Western blot) (RH4 cells [6]): apoptosis; also recorded: increases; H3K4me3 (Western blot) (histone H3 methylation; treated cells): global increase; H3K9me3 (Western blot) (histone H3 methylation; treated cells): global increase; H3K27me3 (Western blot) (histone H3 methylation; treated cells): global increase
O=C(NNc1ccccn1)c1ccccn1 [PFI-90] | 812 | 3.2 | 1.9 | ~2 | 1110 | ~1000 | 0.82 | upregulated | upregulation | upregulation | downregulated | increased caspase 3 | increased caspase 3 | increase in cell death | cytotoxicity compared with PFI-63 ([2]; rhabdomyosarcoma cells (RH4, RH30)): more cytotoxic to rhabdomyosarcoma cells than PFI-63; solubility (Log P / solubility; relative to PFI-63): improved solubility relative to PFI-63; PAX3-FOXO1 (Western blot) (RH4 cells [6]; 3 μM, 24 hours): decreases; cleaved PARP (Western blot) (RH4 cells [6]; 3 μM, 24 hours): increases; methylation of histone H3 (Western blot) (histone H3 methylation; as the concentration increases): also increases
